According to patent US6063791A, “N-benzenesulfonyl-L-proline derivatives, method for preparing and therapeutic use” (Fournier Industrie et Sante, priority 1996, dated 2000):
Where a name gives a salt, the structure may show the parent alone.

Target: T1, guinea-pig B2 receptor (Cavia porcellus, UniProt O70526)
T1 construct: Ileum segments are isolated from male guinea-pigs; tissue Iffa Credo, l'Arbresle, France (animals); host or cells: ileum membranes of male Dunkin-Hartley guinea-pigs
T1 sequence (O70526 1-372): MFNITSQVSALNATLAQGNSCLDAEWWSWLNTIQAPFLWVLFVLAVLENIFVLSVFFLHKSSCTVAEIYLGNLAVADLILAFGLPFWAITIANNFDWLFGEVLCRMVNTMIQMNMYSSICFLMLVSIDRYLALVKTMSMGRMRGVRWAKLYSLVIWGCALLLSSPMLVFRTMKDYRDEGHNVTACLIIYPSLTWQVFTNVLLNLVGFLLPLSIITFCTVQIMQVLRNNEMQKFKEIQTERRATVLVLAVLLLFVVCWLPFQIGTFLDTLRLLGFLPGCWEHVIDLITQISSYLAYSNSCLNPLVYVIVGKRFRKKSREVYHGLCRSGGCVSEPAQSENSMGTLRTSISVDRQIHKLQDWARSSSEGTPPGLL
Assay: Inhibition of [3H]-bradykinin binding to guinea-pig ileum membranes
Settings: test compound at 10^-6 M, [3H]-bradykinin 120 pM, 90 min at 20° C., read-out: Activity (percentage inhibition of the binding of [3H]-bradykinin)
Protocol: The following pharmacological test is used: Ileum segments are isolated from male guinea-pigs [of the Dunkin-Hartley strain (Iffa Credo, l'Arbresle, France)] and ground in the following TES buffer: TES 25 mM, 1,10-phenanthroline 1 mM (pH 6.8), bacitracin 140 μg/ml, BSA 1 g/l. The membranes are then isolated by centrifugation (18,000 rpm; 20 min; 4° C.). The binding studies are carried out in this TES buffer using [^3 H]-bradykinin (120 pM) and 50 μg of membrane protein per test (final volume 500 μl) with an equilibrium time of 90 min at 20° C. The percentage inhibition of the binding of [^3 H]-bradykinin is then determined in the presence of one of the test compounds according to the invention at a concentration of 10^-6 M.
The results obtained from these tests (shown as "activity") are collated in Table I below with reference to the Examples given in the description. In this Table, Pos indicates the position of the amidine group on the aromatic (or heteroaromatic) ring relative to the group B; in the "Salt" column, Ch1 denotes that the compound is in the form of the hydrochloric acid salt and Ms denotes that it is in the form of the methanesulfonic acid salt.

Row | SMILES | inhibition at 1 µM
1 | Cc1cc(C)c2cccc(OCc3c(Cl)ccc(S(=O)(=O)N4CCC[C@H]4C(=O)NCCNC(=O)c4ccc(C(=N)N)cc4)c3Cl)c2n1 [Example 2, 1-[[3-[(2,4-Dimethylquinolin-8-yl)oxymethyl]-2,4-dichlorophenyl]sulfonyl]-N-[2-[[4-(aminoiminomethyl)phenyl]carbonylamino]ethyl]-2(S)-pyrrolidine-carboxamide dihydrochloride] | 92%
2 | CCN(CCCNC(=O)[C@@H]1CCCN1S(=O)(=O)c1ccc(Cl)c(COc2cccc3c(C)cc(C)nc23)c1Cl)C(=O)c1ccc(C(=N)N)cc1 [Example 14, 1-[[3-[(2,4-Dimethylquinolin-8-yl)oxymethyl]-2,4-dichlorophenyl]sulfonyl]-N-3-[[ethyl]-[[4-(aminoiminomethyl)phenyl]carbonyl]amino]propyl]-2(S)-pyrrolidine carboxamide dihydrochloride] | 97%
3 | Cc1cc(C)c2cccc(OCc3c(Cl)ccc(S(=O)(=O)N4CCC[C@H]4C(=O)NCCCCCNC(=O)c4ccc(C(=N)N)cc4)c3Cl)c2n1 [Example 21, 1-[[3-[(2,4-Dimethylquinolin-8-yl)oxymethyl]-2,4-dichlorophenyl]sulfonyl]-N-[5-[[4-(aminoiminomethyl)phenyl]carbonylamino]pentyl]-2(S)-pyrrolidinecarboxamide dihydrochloride] | 100%
4 | Cc1cc(C)c2cccc(OCc3c(Cl)ccc(S(=O)(=O)N4CCC[C@H]4C(=O)NCCNC(=O)COc4ccc(C(=N)N)cc4)c3Cl)c2n1 [Example 4, 1-[[3-[(2,4-Dimethylquinolin-8-yl)oxymethyl]-2,4-dichlorophenyl]sulfonyl]-N-[2-[[2-[4(aminoiminomethyl)phenoxy]-1-oxoethyl]amino]ethyl]-2(S)-pyrrolidinecarboxamide dihydrochloride] | 95.5%
5 | Cc1cc(C)c2cccc(OCc3c(Cl)ccc(S(=O)(=O)N4CCC[C@H]4C(=O)NCCCNC(=O)Cc4ccc(C(=N)N)cc4)c3Cl)c2n1 [Example 8, 1-[[3-[(2,4-Dimethylquinolin-8-yl)oxymethyl]-2,4-dichlorophenyl]sulfonyl]-N-[-[[2-[4(aminoiminomethyl)phenyl]-1-oxoethyl]amino]propyl]-2(S)-pyrrolidinecarboxamide dihydrochloride] | 97.5%
6 | Cc1cc(C)c2cccc(OCc3c(Cl)ccc(S(=O)(=O)N4CCC[C@H]4C(=O)NCCCNC(=O)c4ccc(C(=N)N)cc4)c3Cl)c2n1 [Example 6, 1-[[3-[(2,4-Dimethylquinolin-8-yl)oxymethyl]-2,4-dichlorophenyl]sulfonyl]-N-[3-[[4-(aminoiminomethyl)phenyl]carbonylamino]propyl]-2(S)-pyrrolidine-carboxamide dihydrochloride] | 99%
7 | Cc1cc(C)c2cccc(OCc3c(Cl)ccc(S(=O)(=O)N4CCC[C@H]4C(=O)NCCCCNC(=O)c4ccc(C(=N)N)cc4)c3Cl)c2n1 [Example 19, 1-[[3-[(2,4-Dimethylquinolin-8-yloxymethyl]-2,4-dichlorophenyl]sulfonyl]-N-[4-[[4-(aminoiminomethyl)phenyl]carbonylamino]butyl]-2(S)-pyrrolidinecarboxamidedihydrochloride] | 98%
8 | Cc1cc(C)c2cccc(OCc3c(Cl)ccc(S(=O)(=O)N4CCC[C@H]4C(=O)NCCCN(C)C(=O)c4ccc(C(=N)N)cc4)c3Cl)c2n1 [Example 16, 1-[[3-[(2,4-Dimethylquinolin-8-yl)oxymethyl]-2,4-dichlorophenyl]sulfonyl]-N-[3-[[methyl]-[[4(aminoiminomethyl)phenyl]carbonyl]amino]propyl]-2(S)-pyrrolidinecarboxamide dihydrochloride] | 100%
9 | Cc1cc(C)c2cccc(OCc3c(Cl)ccc(S(=O)(=O)N4CCC[C@H]4C(=O)NCCCNC(=O)COc4ccc(C(=N)N)cc4)c3Cl)c2n1 [Example 10, 1-[[3-[(2,4-Dimethylquinolin-8-yl)oxymethyl]-2,4-dichlorophenyl]sulfonyl]-N-[3-[[2-[4-(aminoiminomethyl)phenoxy]-1-oxoethyl]amino]propyl]-2(S)-pyrrolidinecarboxamide dihydrochloride] | 98.8%
